Experimental data published in patent US20060111289A1, “Compositions and methods of using Alpha-fetoprotein growth inhibitory peptides” (Serometrix, LLC,, priority 2004, published 2006).
Marks after values point to notes of the source that are not given here. Where a SMILES comes first, the peptide text is derived from it.

System: LNCaP human prostate tumor cells
Test: Whole-cell voltage clamp of LNCaP cells
Type: cell-based
Conditions: peptide 10 μM, voltage ramp −100-100 mV (400 ms duration)
Description: LNCaP human prostate tumor cells were cultured on 5×5 mm plastic coverslips and were transferred to a microperfusion chamber on the stage of an inverted microscope. Whole-cell voltage clamp was accomplished with an Axopatch 200B (Axon Instr. Co., Union City, Calif.) using ruptured patches. Borosilicate glass capillaries (1.2 mm OD, 0.68 ID, type EN-I, Garner Glass Co., Claremont, Calif.) were used to fabricate patch pipettes (3-8 MΩ in the bath solution) with a Brown-Flaming horizontal micropipette puller (P-87, Sutter Instruments, San Rafael, Calif.). Patch-pipette tips were heat-polished prior to use. A micromanipulator (Narishige) fixed to the microscope positioned the pipettes. Electrode capacitance and access resistance were compensated prior to measurements. All experiments will be performed at room temperature (20-22° C.). The standard extracellular salt solution for ion currents contained (in mM): 150 NaCl, 6 KCl, 1.5 CaCl2, 1 MgCl2, 10 HEPES, 10 glucose, and pH adjusted to 7.4 with 1 N NaOH. […] Electrophysiological recordings were procured and analyzed using PClamp8 software (Axon Instr. Co, Union City, Calif.) and the WinASCD software (Guy Droogmans, Katholieke Universiteit; Leuven, B E). All results were recorded on computer hard drive or on digital audio tape (DAT). […]

CC[C@H](C)[C@H](NC(=O)[C@@H]1CSSC[C@H](NC(=O)[C@H](C)NC(=O)[C@H](CC(C)C)NC(=O)[C@H](CC(C)C)NC(=O)[C@H](CCCCN)NC(=O)[C@H](CC(=O)O)NC(=O)[C@H](CCC(=O)O)NC(=O)[C@H](CO)NC(=O)[C@@H](N)CC(C)C)C(=O)NCC(=O)N[C@@H](CCC(=O)O)C(=O)NCC(=O)N[C@@H](C)C(=O)N[C@@H](C)C(=O)N[C@@H](CC(=O)O)C(=O)N[C@@H]([C@@H](C)CC)C(=O)N[C@@H]([C@@H](C)CC)C(=O)N[C@@H]([C@@H](C)CC)C(=O)NCC(=O)N[C@@H](Cc2c[nH]cn2)C(=O)N[C@@H](CC(C)C)C(=O)N1)C(=O)N[C@@H](CCCNC(=N)N)C(=O)N[C@@H](Cc1c[nH]cn1)C(=O)N[C@@H](CCC(=O)O)C(=O)N[C@@H](CCSC)C(=O)N[C@H](C(=O)N1CCC[C@H]1C(=O)N[C@H](C(=O)N[C@@H](CC(N)=O)C(=O)N1CCC[C@H]1C(=O)NCC(=O)N[C@H](C(=O)O)C(C)C)C(C)C)[C@@H](C)O [Cyclic GIP] (HELM PEPTIDE1{L.S.E.D.K.L.L.A.C.G.E.G.A.A.D.I.I.I.G.H.L.C.I.R.H.E.M.T.P.V.N.P.G.V}$PEPTIDE1,PEPTIDE1,9:R3-22:R3$$$V2.0; N-terminus and C-terminus assumed)
Slope conductance (membrane conduction): 0.78 0.15* nS/pF
